According to ChEMBL document CHEMBL1142595, “Spirolides isolated from Danish strains of the toxigenic dinoflagellate Alexandrium ostenfeldii” (J Nat Prod, 2006):

Tested on: Mus musculus
Experiment: Toxicity in ip dosed mouse
Assay type: organism-based
Conditions: in vivo

Compound `C=C1CCCC2=NCC(C)C(C)CC23CCC(C2C=C(C)C(=O)O2)=C(C)C3/C=C(\C)C(O)CC2CCC3(CCC4(OC(CCC4O)C1)O3)O2` (stereo unspecified) has an MLD of 0.03 mg/kg.
